Assay results reported in BindingDB's records for doi:10.1021/jm400639z (Duquesne University, 2013).
pIC50: −log10 of the molar value.

Tests used:
[1] = Inhibition of beta3 tubulin overexpressed in human HeLa cells after 48 hrs by SRB assay
[2] = Inhibition of p-gp overexpressed in human SKOV3/M6-6 isogenic cells after 48 hrs by sulforhodamine B assay

Row | Structure (SMILES) | pIC50 [1] | pIC50 [2]
1 | COc1ccc(N(C)c2nc(C)nc3c2CCC3)cc1 | 8.09 | 7.80
2 | COc1ccc(/C=C\c2cc(OC)c(OC)c(OC)c2)cc1O [combretastin A4] | – | 8.18
3 | COc1ccc(N(C)c2nc(C)nc3c2CC(C)C3)cc1 (stereo not given) | 7.62 | 7.36
